From ChEMBL document CHEMBL4014321, “Discovery of Pyrazolo[1,5-a]pyrimidine B-Cell Lymphoma 6 (BCL6) Binders and Optimization to High Affinity Macrocyclic Inhibitors” (J Med Chem, 2017) come the findings set out here.

Structures are written as SMILES. In brackets after ≈: the same amount, converted by molar mass.

The nature of data set [1]: Binding affinity to GABA receptor (unknown origin) by radioligand displacement assay. Details: species or system Homo sapiens.
For the next data set, the system named is OCI-Ly3. Description: Antiproliferative activity against BCL6 dependent human OCI-LY3 cells after 3 days by CellTiter-Glo assay. The format is functional. The note with it: OCI-Ly3, 72 h. In general terms: In ATP-based viability assays light output follows the ATP content of the culture.
The next data set concerns SUD4. Description: Antiproliferative activity against BCL6 dependent human SUDHL4 cells after 3 days by CellTiter-Glo assay. The format is functional. The settings on record: SU-DHL-4, 72 h.
Another data set deals with OCI-Ly10. The data set can be described thus: Antiproliferative activity against BCL6 dependent human OCI-LY10 cells after 3 days by CellTiter-Glo assay. The format is functional. The note with it: OCI-Ly10, 72 h.
The next data set has as its system OCI-LY19. The data set can be described thus: Antiproliferative activity against BCL6 independent human OCI-LY19 cells after 3 days by CellTiter-Glo assay. The note with it: OCI-LY19, 72 h. The format is functional.
The test system of the next data set is AMO1. The data set can be described thus: Antiproliferative activity against BCL6 dependent human AMO1 cells after 3 days by CellTiter-Glo assay. The format is functional. The settings on record: AMO1, 72 h.
The subject of a further data set is KARPAS-422. Description: Antiproliferative activity against BCL6 […] human KARPAS422 cells after 3 days by CellTiter-Glo assay. The settings on record: KARPAS-422, 72 h. The format is functional.
In data set [2] the target is 5-hydroxytryptamine receptor 1B (Homo sapiens, UniProt P28222). The data set can be described thus: Agonist activity at 5-HT1B receptor (unknown origin).
Data set [3] can be described thus: Inhibition of human CK2 protein.
Another data set has as its system SU-DHL-2. Description: Antiproliferative activity against BCL6 dependent human SU-DHL-2 cells after 3 days by CellTiter-Glo assay. The settings on record: SU-DHL-2, 72 h. The format is functional.
The subject of another data set is TMD8. Description: Antiproliferative activity against BCL6 dependent human TMD8 cells after 3 days by CellTiter-Glo assay. The format is functional. The note with it: TMD8, 72 h.
The subject of a further data set is OCI-Ly1. Description: Antiproliferative activity against BCL6 dependent human OCI-LY1 cells after 3 days by CellTiter-Glo assay. The format is functional. The note with it: OCI-Ly1, 72 h.
The next data set deals with U2932. Description: Antiproliferative activity against BCL6 dependent human U2932 cells after 3 days by CellTiter-Glo assay. The format is functional. The settings on record: U2932, 72 h.
For data set [4], the species on record is Homo sapiens. The data set can be described thus: Inhibition of human CK2 protein at 1 uM relative to control.
The target in data set [5] is T1, B-cell lymphoma 6 protein (Homo sapiens, UniProt P41182, C67R/C84N/C8Q). The data set can be described thus: Inhibition of SMRT2 H1426W mutant peptide binding to N-terminal His6-tagged human BCL6 BTB domain C8Q/C67R/C84N mutant expressed in Escherichia coli BL21 (DE3) preincubated for 30 mins followed by SMRT2 H1426W mutant peptide addition measured after 60 mins by time-resolved fluorescence resonance energy transfer assay.

A short description of data set [6]: Octanol-buffer partition co-efficient, log D of the compound at pH 7.4 after 30 mins by shake flask method. The format is physicochemical.
For data set [7], the target named is T1, B-cell lymphoma 6 protein. Description: Binding affinity to N-terminal His6-tagged human BCL6 BTB domain C8Q/C67R/C84N mutant expressed in Escherichia coli BL21 (DE3) by surface plasmon resonance spectrometry. Background: In SPR one partner is held on a chip, and binding of the other changes the refractive index at the surface.
The species entered for data set [8] is Homo sapiens. The data set can be described thus: Selectivity ratio of IC50 for human CK2 protein to IC50 for N-terminal His6-tagged human BCL6 BTB domain C8Q/C67R/C84N mutant.
Data set [9] is described as follows: Apparent permeability in human Caco2 cells. The settings on record: Caco-2. The format is ADME, cell-based. On the technique in general: Passage across Caco-2 layers is used to estimate intestinal permeability.
Data set [10] in a line: Aqueous solubility of the compound at pH 7.4 after 24 hrs by LC-UV method. The format is physicochemical.

Sequence of 5-hydroxytryptamine receptor 1B (P28222 whole entry): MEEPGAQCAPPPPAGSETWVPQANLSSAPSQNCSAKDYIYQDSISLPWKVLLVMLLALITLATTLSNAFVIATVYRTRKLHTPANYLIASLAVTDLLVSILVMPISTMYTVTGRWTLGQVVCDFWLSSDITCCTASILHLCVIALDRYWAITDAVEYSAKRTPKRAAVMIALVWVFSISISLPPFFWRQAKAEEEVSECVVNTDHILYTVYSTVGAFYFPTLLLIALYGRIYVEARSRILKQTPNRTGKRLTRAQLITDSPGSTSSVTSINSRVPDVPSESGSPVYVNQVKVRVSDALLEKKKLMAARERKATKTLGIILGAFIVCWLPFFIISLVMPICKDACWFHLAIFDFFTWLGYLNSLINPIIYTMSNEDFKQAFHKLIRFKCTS

As to `O=C1CCc2cc3cc(c2N1Cc1ccccc1)OC/C=C/CO[C@H]1C[C@@H](CO)N(C1)c1cc(n2ncc(Cl)c2n1)N3`, the inhibition constant Ki (as a rule, the equilibrium dissociation constant of an inhibitor or competing ligand from its target) in data set [1] was found to be 0.25 µM. Also, the GI50 (usually the concentration at which growth is held to half of that of the control) with OCI-Ly3 was 12.6 µM; in the data set on SUD4 it was 15.8 µM; in the data set on OCI-Ly10 it was 10 µM; in the data set with OCI-LY19 it was 10 µM; with AMO1, 25.1 µM; in the data set on KARPAS-422, 25.1 µM. Moreover, the 50% growth inhibitory concentration (GI50) in the data set with SU-DHL-2 was 10 µM; with TMD8 it was 10 µM; in the data set with OCI-Ly1, 12.6 µM; in the data set on U2932 it was 7.94 µM. In addition, the concentration giving a half-maximal response (EC50) (commonly the midpoint of the concentration-response curve) in data set [2] was determined as 0.57 µM. Further, the IC50 – broadly, the midpoint of a concentration-inhibition curve – in data set [3] was over 10 µM.
With `N#Cc1cnn2c3cc(nc12)N1C[C@H](C[C@H]1CO)OC/C=C/COc1cc(cc2c1NC(=O)CC2)N3`, the inhibition (in general, the change of the read-out against control, counted positive when it falls) in the data set filed under Homo sapiens [4] was over 60%. Moreover, the 50% growth inhibitory concentration (GI50) in the data set with OCI-Ly3 is 3.98 µM; in the data set with SUD4 it was 7.94 µM; in the data set with OCI-Ly10 it was 5.01 µM; in the data set with OCI-LY19, 6.31 µM; with AMO1, 15.8 µM; with KARPAS-422 it was 7.94 µM. The GI50 with SU-DHL-2 was 3.16 µM; with TMD8 it was 7.94 µM; in the data set on OCI-Ly1 it was 10 µM; in the data set with U2932 it was 6.31 µM. Besides, the IC50 in data set [5] came to 0.0029 µM. Besides, the logD (usually the decadic logarithm of the distribution of all forms, ionised or not, between an organic phase and buffer at a given pH) at 0.5 h in [6] came out at 2.2. For the same molecule, the Kd (usually the concentration at which binding is half-saturated) in [7] came to 0.0065 µM. In addition, in the data set listed under Homo sapiens [8], the Ratio IC50 came to 220.
For the molecule `N#Cc1cnn2c(Nc3ccc4c(c3)CCC(=O)N4)cc(N3CCC[C@H]3CO)nc12`, the IC50 in data set [5] amounted to 0.37 µM. This molecule showed a pH-dependent lipophilicity (logD) at 0.5 h in [6] of 2.3. This molecule also returned a Kd in [7] of 0.5 µM.
Take `O=C1CCc2cc3cc(c2N1)OC/C=C/CO[C@H]1C[C@@H](CO)N(C1)c1cc(n2ncc(Cl)c2n1)N3`: the concentration for 50% growth inhibition (GI50) with OCI-Ly3 was 2 µM; with SUD4, 6.31 µM; in the data set with OCI-Ly10, 1.58 µM; in the data set on OCI-LY19, 2 µM; in the data set on AMO1, 3.16 µM; in the data set with KARPAS-422 it was 5.01 µM. Further, the GI50 in the data set with SU-DHL-2 was 3.98 µM; in the data set on TMD8 it was 2.51 µM; in the data set with OCI-Ly1, 3.98 µM; with U2932 it was 2.51 µM. Moreover, the apparent permeability coefficient (Papp) (usually a coefficient for how fast a substance crosses the barrier) in [9] was found to be 46 ×10⁻⁶ cm/s. Further, in [3], inhibition was half-maximal at 7.3 µM (IC50). Moreover, in data set [10], the solubility (in general, the dissolved amount per volume that the medium holds) at 24 h was found to be 31 µM (≈ 15.4 µg/mL).
